Laboratory results taken from patent publication US9549941B2, “Compositions and methods for treating hepatitis C virus” (priority 2011, dated 2017).

Key:
HCV NS5B S282T = experiment: GS-7977 resistance in Phase 2 clinical studies, population and deep sequencing of NS5B; type: in vivo, human; conditions: one GT2b patient, relapse 4 weeks after 12 weeks of monotherapy
[1] = system: mixture of 50% S282T and 50% WT in GT2a replicons; experiment: Long-term passaging study with deep sequencing; type: cell-based, hepatitis C virus; parameters: population mutant S282T: concentration or dose not given beside the values; conditions: over fifteen days
Source text: (§1) In vitro studies have shown that S282T is the primary mutation selected by GS-7977 in HCV genotype 1a, 1b and 2a replicon cells. (Lam et al., J. Virology (2011) 85(23): 12334-12342; Lam et al., Antimicrob. Agents Chemother. (2012) 56(6): 3359-3368.) S282T mutations in NS5B were created by site-directed mutagenesis in 1a-H77, 1b con-1, and 2a JFH1 sub-genomic replicons. 1b con-1-based chimeric replicons containing 2b, 3a, 4a, 5a, or 6a NS5B were also engineered to harbor the S282T mutation. […] Relative percentages of mutant and WT were assessed by deep sequencing.
(See also Han et al., 63rd Annual Meeting of the American Association for the Study of Liver Diseases, Poster 1078, Nov. 11, 2012.)

[2] = ELECTRON adverse events (Groups 1,7,8,9 N=70; Groups 2,3,4 N=30; Group 5 N=10; Group 6 N=10); type: in vivo, human; conditions: subjects with event
[3] = system: 1b con-1 sub-genomic replicon, NS5B S282T; type: cell-based, hepatitis C virus; conditions: genotype 1b, S282T from corresponding wild-type
Description: as §1, with “(Lam” for “In vitro studies have shown that S282T is the primary mutation selected by GS-7977 in HCV genotype 1a, 1b and 2a replicon cells. (Lam”

[4] = system: 1b con-1-based chimeric replicon containing 4a NS5B S282T; type: cell-based, hepatitis C virus; conditions: genotype 4a, S282T from corresponding wild-type
Description: as §1, with “(Lam” for “In vitro studies have shown that S282T is the primary mutation selected by GS-7977 in HCV genotype 1a, 1b and 2a replicon cells. (Lam”

[5] = system: 1b con-1-based chimeric replicon containing 5a NS5B S282T; type: cell-based, hepatitis C virus; conditions: genotype 5a, S282T from corresponding wild-type
Description: as §1, with “(Lam” for “In vitro studies have shown that S282T is the primary mutation selected by GS-7977 in HCV genotype 1a, 1b and 2a replicon cells. (Lam”

[6] = system: 2a JFH1 sub-genomic replicon, NS5B S282T; type: cell-based, hepatitis C virus; conditions: genotype 2a, S282T from corresponding wild-type
Description: as §1, with “(Lam” for “In vitro studies have shown that S282T is the primary mutation selected by GS-7977 in HCV genotype 1a, 1b and 2a replicon cells. (Lam”

[7] = system: 1b con-1-based chimeric replicon containing 3a NS5B S282T; type: cell-based, hepatitis C virus; conditions: genotype 3a, S282T from corresponding wild-type
Description: as §1, with “(Lam” for “In vitro studies have shown that S282T is the primary mutation selected by GS-7977 in HCV genotype 1a, 1b and 2a replicon cells. (Lam”

[8] = system: 1a-H77 sub-genomic replicon, NS5B S282T; experiment: microbe, parasite or virus in culture; type: cell-based, hepatitis C virus
Description: as §1, with “(Lam” for “In vitro studies have shown that S282T is the primary mutation selected by GS-7977 in HCV genotype 1a, 1b and 2a replicon cells. (Lam”

[9] = ELECTRON Grade 3/4 hematologic (laboratory) abnormalities; type: in vivo, human; conditions: Groups 1-6 (GT2/GT3 Tx-naive)

CC(C)OC(=O)[C@H](C)N[P@](=O)(OC[C@H]1O[C@@H](n2ccc(=O)[nH]c2=O)[C@](C)(F)[C@@H]1O)Oc1ccccc1 [GS-7977, (S)-isopropyl 2-(((S)-(((2R,3R,4R,5R)-5-(2,4-dioxo-3,4-dihydropyrimidin-1(2H)-yl)-4-fluoro-3-hydroxy-4-methyltetrahydrofuran-2-yl)methoxy)(phenoxy)phosphoryl)amino)propanoate]
S282T at relapse by deep sequencing (HCV NS5B S282T): 99%
population mutant S282T [1]: 92%
Abdominl Pain: n [2]: 0
Alopecia: n [2]: 0
Anemia: n [2]: 0
Arthralgia: n [2]: 0
Axillary Pain: % [2]: (20) %
Axillary Pain: n [2]: 2
Back Pain: % [2]: (10) %
Back Pain: n [2]: 1
Blood and Lymphatic System Disorders: n [2]: 0
Chills: n [2]: 0
Decreased Appetite: n [2]: 0
Diarrhoea: n [2]: 0
Dizziness Postural: n [2]: 0
Dizziness: % [2]: (20) %
Dizziness: n [2]: 2
Dry Skin: n [2]: 0
Dyspnoea: n [2]: 0
Fatigue: % [2]: (30) %
Fatigue: n [2]: 3
Flatulence: n [2]: 0
Gastrointestinal Disorders: % [2]: (80) %
Gastrointestinal Disorders: n [2]: 8
General Disorders and Administration Site Conditions: % [2]: (80) %
General Disorders and Administration Site Conditions: n [2]: 8
Headache: % [2]: (80) %
Headache: n [2]: 8
Infections and Infestations: % [2]: (50) %
Infections and Infestations: n [2]: 5
Injection Site Erythema: n [2]: 0
Insomnia: % [2]: (60) %
Insomnia: n [2]: 6
Irritability: % [2]: (10) %
Irritability: n [2]: 1
Metabolism and Nutrition Disorders: n [2]: 0
Musculoskeletal and Connective Tissue Disorders: % [2]: (20) %
Musculoskeletal and Connective Tissue Disorders: n [2]: 2
Myalgia: % [2]: (10) %
Myalgia: n [2]: 1
Nausea: % [2]: (30) %
Nausea: n [2]: 3
Nervous System Disorders: % [2]: (90) %
Nervous System Disorders: n [2]: 9
Oropharyngeal Pain: % [2]: (20) %
Oropharyngeal Pain: n [2]: 2
Pain: n [2]: 0
Pruritus: n [2]: 0
Psychiatric Disorders: % [2]: (60) %
Psychiatric Disorders: n [2]: 6
Pyrexia: n [2]: 0
Rash: % [2]: (10) %
Rash: n [2]: 1
Respiratory, Thoracic and Mediastinal Disorders: % [2]: (30) %
Respiratory, Thoracic and Mediastinal Disorders: n [2]: 3
Skin and Subcutaneous Tissue Disorders: % [2]: (30) %
Skin and Subcutaneous Tissue Disorders: n [2]: 3
Upper Respiratory Tract Infection: % [2]: (20) %
Upper Respiratory Tract Infection: n [2]: 2
≧1 AE: % [2]: (100) %
≧1 AE: n [2]: 10
Fold Change [3]: 8.8
Fold Change [4]: 6.1
Fold Change [5]: 14.35
Fold Change [6]: 2.4
Fold Change [7]: 3.5
EC50 ([8]; Hepatitis C virus, read-out: EC50 S282T): 253 nM
Fold Change ([8]; genotype 1a, S282T from corresponding wild-type): 10.1
Alanine aminotransferase Grade 3: n [9]: 0
Hemoglobin Grade 3: n [9]: 0
INR Grade 3: n [9]: 0
Lymphocytes Grade 3: n [9]: 0
Lymphocytes Grade 4: % [9]: 10%
Lymphocytes Grade 4: n [9]: 1
Neutropenia Grade 3: n [9]: 0
Neutropenia Grade 4: n [9]: 0
White blood cells Grade 3: n [9]: 0
